# What was measured:
# L1210 tumor cells = assay: Antitumor efficacy in L1210 tumor-bearing CDF1 mice (increase in life span); type: in vivo
# Method: In the following test, antitumor efficacy studies were performed using 8-9 weeks old female CDF1 mice, the average weight of the animal is 20-25 grams. L1210 tumor cells (about 10^5 cells per mouse) were inoculated intraperitoneally. The fluorine-containing water-soluble platinum complexes were used to treat the tumor-bearing animals and the efficacy was compared compared with the clinical platinum antitumor drugs. […] Drugs were administered intraperitoneally on day 1 and day 4 after tumor cell transplantation. The number of experimental animals in each group was 6.
# The experimental animals were purchased from Vital River Laboratory Animal Technology Co. Ltd., Tumor cells L1210-leukemia cells were purchased from Shanghai An Yan Commercial Trade Co. Ltd.
# The increase in life span (ILS) is calculated as follows:
# Wherein, St=the weighted median survival time of treated animals; Su=the weighted median survival time of untreated animals
# [1] = cited from earlier work
# [2] = 24 mg/Kg i.p. on day 1 and day 4
# [3] = 40 mg/Kg i.p. on day 1 and day 4
# [4] = 80 mg/Kg i.p. on day 1 and day 4
structure (smiles),measurement,setting,value
N.N.O=C([O-])C1(C(=O)[O-])CCC1.[Pt+2] [Carboplatin],ILS (%),L1210 tumor cells; [2],10%
same,Survived Animals on Day 42,L1210 tumor cells; [2],0/6
same,Weight Changes (g),"L1210 tumor cells; 24 mg/Kg i.p. on day 1 and day 4, weight changes from the first day to the seventh day",+0 g
same,ILS (%),L1210 tumor cells; [3],24%
same,Survived Animals on Day 42,L1210 tumor cells; [3],0/6
same,Weight Changes,"L1210 tumor cells; 40 mg/Kg i.p. on day 1 and day 4, weight changes from the first day to the seventh day",-0.3 g
same,ILS (%),L1210 tumor cells; [4],55%
same,Survived Animals on Day 42,L1210 tumor cells; [4],1/6
same,Weight Changes,"L1210 tumor cells; 80 mg/Kg i.p. on day 1 and day 4, weight changes from the first day to the seventh day",-1.2 g
same,water solubility,[1],17 mg/mL

# From patent publication US20140349955A1, “USE OF FLUORINE-CONTAINING WATER SOLUBLE PLATINUM COMPLEX IN PREPARING DRUGS FOR PREVENTION AND TREATMENT OF CANCERS” (GUDUI BIOPHARMA TECHNOLOGY INC., priority 2011, published 2014)
